pIC50: −log10 of the molar value. Marks after values point to notes of the source that are not given here.
How the values were obtained:
HapR = experiment: Western blot against HapR; type: cell-based, Vibrio cholerae; details: Supplementary data
Tcp = experiment: Western blot against Tcp; type: cell-based, Vibrio cholerae; details: Supplementary data
CqsS [1] = target: T1, CqsS (Vibrio cholerae serotype O1, UniProt Q9KM66); experiment: Vibrio cholerae agonism bioassay; details: for % Response at the maximum concentration (50 μM): bioluminescence at 50 μM, with respect to CAI-1 at 100%; for agonist activity (in words): V. cholerae MM920 reporter, up to 50 μM
CqsS [2] = target: T1, CqsS; experiment: Vibrio cholerae antagonism bioassay; details: for antagonist activity (in words): V. cholerae MM920 reporter with 1.0 μM CAI-1, up to 512 μM; for Ratio: IC50 (analog)/IC50 (Ph-CAI-1): using the IC50 of Ph-CAI-1 determined on the same day

T1 sequence (Q9KM66 whole entry, looked up): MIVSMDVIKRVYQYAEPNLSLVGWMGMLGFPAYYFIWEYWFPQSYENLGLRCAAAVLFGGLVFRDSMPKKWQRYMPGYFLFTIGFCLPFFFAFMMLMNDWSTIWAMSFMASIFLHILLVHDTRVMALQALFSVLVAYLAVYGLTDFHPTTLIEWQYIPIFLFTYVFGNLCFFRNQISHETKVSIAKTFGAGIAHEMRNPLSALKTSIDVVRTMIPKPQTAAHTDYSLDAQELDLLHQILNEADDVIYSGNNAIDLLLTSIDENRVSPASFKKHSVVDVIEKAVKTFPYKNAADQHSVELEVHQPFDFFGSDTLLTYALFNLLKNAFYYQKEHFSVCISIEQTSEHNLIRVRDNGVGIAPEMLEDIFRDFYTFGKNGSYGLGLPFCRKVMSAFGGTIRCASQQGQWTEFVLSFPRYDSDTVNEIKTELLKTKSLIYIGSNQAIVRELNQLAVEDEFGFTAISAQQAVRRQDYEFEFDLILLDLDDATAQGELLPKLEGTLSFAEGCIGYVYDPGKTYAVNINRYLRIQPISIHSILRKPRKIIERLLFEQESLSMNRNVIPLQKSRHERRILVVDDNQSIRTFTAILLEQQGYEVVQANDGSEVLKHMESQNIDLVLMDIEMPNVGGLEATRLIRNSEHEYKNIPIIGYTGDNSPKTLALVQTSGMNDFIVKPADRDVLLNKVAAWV

Compound	agonist activity (in words) (CqsS [1])	antagonist activity (in words) (CqsS [2])	also measured
CCCCCCCCCC(=O)[C@@H](O)CC [Compound 1, (S)-3-hydroxytridecan-4-one]			expression of HapR (HapR): concomitant expression; expression of Tcp (Tcp): significant reduction
CCCCCC(=O)[C@@H](O)CC [Compound A1, (S)-3-Hydroxynonan-4-one]			% Response at the maximum concentration (50 μM) (CqsS [1]): 27 ^e %
CCCCCCC(=O)[C@@H](O)CC [Compound A2, (S)-3-Hydroxydecan-4-one]	essentially inactive		% Response at the maximum concentration (50 μM) (CqsS [1]): 59 ^e %
CCCCCCCCCCCCC(=O)[C@@H](O)CC [Compound A9, (S)-3-Hydroxyhexadecan-4-one]	essentially inactive		
CCCCCCCCCC(=O)C(Cl)CC (stereo not shown) [Compound B8, Cl-CAI-1]	inactive		
CCCCCCCCCC(=O)C(O)C(C)(C)C (stereo not shown) [Compound C4, 3-Hydroxy-2,2-dimethyltridecan-4-one]	inactive		
CCCCCCCCCC(=O)C(O)c1ccc(C)c(C)c1 (stereo not shown) [Compound C9, 1-Hydroxy-1-(3,4-dimethylphenyl)undecan-2-one]		abolishes activity	
CCCCCCCCCC(=O)C(O)c1ccc(CC)cc1 (stereo not shown) [Compound C10, 1-(4-Ethylphenyl)-1-hydroxyundecan-2-one]		inactive	pIC50 (CqsS [2]): < 3.30; Ratio: IC50 (analog)/IC50 (Ph-CAI-1) (CqsS [2]): >9
CCCCCCCCCC(=O)C(O)c1ccc(CCC)cc1 (stereo not shown) [Compound C11, 1-Hydroxy-1-(4-propylphenyl)-undecan-2-one]		inactive	pIC50 (CqsS [2]): < 3.30; Ratio: IC50 (analog)/IC50 (Ph-CAI-1) (CqsS [2]): >9
CCCCCCCCCC(=O)C(O)c1ccc(Br)cc1 (stereo not shown) [Compound C28, 1-(4-Bromophenyl)-1-hydroxyundecan-2-one]		weak antagonist	
